Measured values: US6288091A, “Antiherpes virus compounds and methods for their preparation and use” (Boehringer Ingelheim Ltd., priority 1999, dated 2001)
Read-outs that look alike come from different tables or passages of the source.

Legend:
HCMV (strain AD169) = test: Inhibition of HCMV replication, ELISA assay (Hs-68 cells); type: cell-based, Human Cytomegalovirus (HCMV); details: read-out: ELISA CMV EC50
Method in brief: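 EC50 derived from % inhibition of viral replication, read as p28 late-protein ELISA signal (mAb UL99, peroxidase/OPD, 450 nm) on fixed cells. Read-out came 8 days post-infection at 37 °C in DMEM with 5% FBS plus compound, after 2 h adsorption of AD169 at MOI 0.01 PFU/cell onto near-confluent Hs-68 cells.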

HSV-1 strain F or KOS = test: Inhibition of herpes simplex virus (HSV-1) replication in cell culture (BHK-21 cells, glycoprotein C ELISA); type: cell-based
Method in brief: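 Replication readout: ELISA for HSV-1 late glycoprotein C (mAb C11, peroxidase-OPD, 450 nm) on glutaraldehyde-fixed cells. Monolayers (~50,000 cells/well) were infected with strain F or KOS (MOI 0.05 PFU/cell), then incubated 24 h at 37° with compound in 2% FBS α-MEM. EC50 derived from % inhibition.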

[1] = Human betaherpesvirus 5, AD169, Hs68, Group 1 Table 2 entries
[2] = Human alphaherpesvirus 1, BHK-21, Group 1 Table 2 entries
[3] = Human betaherpesvirus 5, AD169, Hs68, Group 1 Table 1 entries
[4] = Human alphaherpesvirus 1, BHK-21, Group 1 Table 1 entries

Compound | EC50 (HCMV (strain AD169); [3]) | EC50 (HSV-1 strain F or KOS; [4]) | other results
C[C@@H](c1ccccc1)N(CCC(=O)Nc1ccc(-c2csc(N)n2)cc1)Cc1ccccc1 [Example 19] |  |  | EC50 (HCMV (strain AD169); [1]): 3.1 µM; EC50 (HSV-1 strain F or KOS; [2]): 0.89 µM
CC(C)c1nc(-c2ccc(NC(=O)CN(Cc3ccccc3)C(=O)c3ccccc3)cc2)cs1 [Example 20] |  |  | EC50 (HCMV (strain AD169); Human betaherpesvirus 5, AD169, Hs68, Group 1 Table 3 entries): 3.3 µM; EC50 (HSV-1 strain F or KOS; Human alphaherpesvirus 1, BHK-21, Group 1 Table 3 entries): > 25 µM
C[C@H](NCCC(=O)Nc1ccc(-c2csc(N)n2)cc1)c1ccccc1 [Example 20] |  |  | EC50 (HCMV (strain AD169); [1]): 0.8 µM; EC50 (HSV-1 strain F or KOS; [2]): 1.3 µM
CC(C)(C)OC(=O)N(CCC(=O)Nc1ccc(-c2csc(N)n2)cc1)CC1CCCCC1 [Example 21] |  |  | EC50 (HCMV (strain AD169); [1]): 4.2 µM; EC50 (HSV-1 strain F or KOS; [2]): 0.45 µM
CN(CC(=O)Nc1ccc(-c2csc(N)n2)cc1)C(=O)c1ccncc1 [Example 22] | 110 µM | 1.8 µM | 
Nc1nc(-c2ccc(NC(=O)CCNCC3CCCCC3)cc2)cs1 [Example 22] |  |  | EC50 (HCMV (strain AD169); [1]): 4.8 µM; EC50 (HSV-1 strain F or KOS; [2]): 6 µM
CCCC(CCC)NCCC(=O)Nc1ccc(-c2csc(N)n2)cc1 [Example 23] |  |  | EC50 (HCMV (strain AD169); [1]): 4 µM; EC50 (HSV-1 strain F or KOS; [2]): 6 µM
Nc1nc(-c2ccc(NC(=O)CN(Cc3ccccc3)C(=O)c3ccccc3)cc2)cs1 [Example 23] | 12 µM | 0.007 µM | 
Nc1nc(-c2ccc(NC(=O)CCN(CC3CCCCC3)C(=O)c3cccnc3)cc2)cs1 [Example 24] |  |  | EC50 (HCMV (strain AD169); [1]): 0.45 µM; EC50 (HSV-1 strain F or KOS; [2]): 1.7 µM
Nc1nc(-c2ccc(NC(=O)CN(Cc3ccccc3)C(=O)c3ccc(F)cc3)cc2)cs1 [Example 24] | 14 µM | 0.002 µM | 
C[C@@H](NCCC(=O)Nc1ccc(-c2csc(N)n2)cc1)c1ccccc1 [Example 25] |  |  | EC50 (HCMV (strain AD169); [1]): 1 µM; EC50 (HSV-1 strain F or KOS; [2]): 2.6 µM
Nc1nc(-c2ccc(NC(=O)CN(Cc3ccccc3)C(=O)Cc3ccccc3)cc2)cs1 [Example 26] | 1.8 µM | 0.05 µM | 
Nc1nc(-c2ccc(NC(=O)CN(Cc3ccccc3)C(=O)c3ccccn3)cc2)cs1 [Example 27] | 7 µM | 0.28 µM | 
Nc1nc(-c2ccc(NC(=O)CN(Cc3ccccc3)C(=O)c3cccnc3)cc2)cs1 [Example 28] | 4.6 µM | 0.13 µM | 
Nc1nc(-c2ccc(NC(=O)CN(Cc3ccccc3)C(=O)c3ccncc3)cc2)cs1 [Example 29] | 12 µM | 0.035 µM | 
Nc1nc(-c2ccc(NC(=O)CN(Cc3ccccc3)C(=O)c3cc[n+]([O-])cc3)cc2)cs1 [Example 30] | 77 µM | 0.43 µM | 
Nc1nc(-c2ccc(NC(=O)CN(Cc3ccccc3)C(=O)Cc3ccccn3)cc2)cs1 [Example 31] | 1.3 µM | 0.4 µM | 
Nc1nc(-c2ccc(NC(=O)CN(Cc3ccccc3)C(=O)c3cccs3)cc2)cs1 [Example 32] | 5.4 µM | 0.04 µM | 
Nc1nc(-c2ccc(NC(=O)CN(Cc3ccccc3)C(=O)c3cnccn3)cc2)cs1 [Example 33] | 28.2 µM | 0.17 µM | 
Nc1nc(-c2ccc(NC(=O)CN(Cc3ccccc3)C(=O)C3CCCCC3)cc2)cs1 [Example 34] | 1 µM | 0.004 µM | 
Nc1nc(-c2ccc(NC(=O)CN(Cc3ccccc3)C(=O)C3CCCC3)cc2)cs1 [Example 36] | 2.8 µM | 0.005 µM | 
Nc1nc(-c2ccc(NC(=O)CN(Cc3ccccc3)C(=O)CC3CCCCC3)cc2)cs1 [Example 38] | 4 µM | 0.016 µM | 
Nc1nc(-c2ccc(NC(=O)CN(Cc3ccccc3)C(=O)CC3CCCC3)cc2)cs1 [Example 39] | 6.1 µM | 0.009 µM | 
CC(C)(C)C(=O)N(CC(=O)Nc1ccc(-c2csc(N)n2)cc1)Cc1ccccc1 [Example 41] | 14 µM | 0.036 µM | 
CC(C)(C)CC(=O)N(CC(=O)Nc1ccc(-c2csc(N)n2)cc1)Cc1ccccc1 [Example 42] | 6 µM | 0.002 µM | 
CC(C)C(=O)N(CC(=O)Nc1ccc(-c2csc(N)n2)cc1)Cc1ccccc1 [Example 43] | 25 µM | 0.13 µM | 

Compound | EC50 (HCMV (strain AD169); [3]) | EC50 (HSV-1 strain F or KOS; [4]) | other results
CC(=O)N(CC(=O)Nc1ccc(-c2csc(N)n2)cc1)Cc1ccccc1 [Example 44] | 16 µM | 0.75 µM | 
Nc1nc(-c2ccc(NC(=O)CN(Cc3ccccn3)C(=O)C3CCCCC3)cc2)cs1 [Example 47] | 19 µM | 0.013 µM | 
Nc1nc(-c2ccc(NC(=O)CN(Cc3cccnc3)C(=O)C3CCCCC3)cc2)cs1 [Example 48] | 5 µM | 0.04 µM | 
Nc1nc(-c2ccc(NC(=O)CN(Cc3ccncc3)C(=O)C3CCCCC3)cc2)cs1 [Example 49, N-{2-{{4-(2-amino-4-thiazolyl)phenyl}amino}-2-oxoethyl}-N-(4-pyridinylmethyl)cyclohexanecarboxamide] | 25 µM | 0.012 µM | 
Nc1nc(-c2ccc(NC(=O)CN(CCc3ccccn3)C(=O)C3CCCCC3)cc2)cs1 [Example 50] | 1.6 µM | 0.068 µM | 
Nc1nc(-c2ccc(NC(=O)CN(Cc3cccs3)C(=O)C3CCCCC3)cc2)cs1 [Example 51] | 6 µM | 0.002 µM | 
C[C@H](c1ccccc1)N(CC(=O)Nc1ccc(-c2csc(N)n2)cc1)C(=O)C1CCCCC1 [Example 52] | 1.3 µM | 0.013 µM | 
C[C@@H](c1ccccc1)N(CC(=O)Nc1ccc(-c2csc(N)n2)cc1)C(=O)C1CCCCC1 [Example 53] | 3.2 µM | 0.003 µM | 
C[C@@H](c1ccccc1)N(CC(=O)Nc1ccc(-c2csc(N)n2)cc1)C(=O)c1ccncc1 [Example 58] | 5.2 µM | 0.04 µM | 
Nc1nc(-c2ccc(NC(=O)CN(CC3CCCCC3)C(=O)c3ccccc3)cc2)cs1 [Example 60] | 3 µM | 0.54 µM | 
Nc1nc(-c2ccc(NC(=O)CN(CC3CCCCC3)C(=O)C3CCNCC3)cc2)cs1 [Example 62] | 2.2 µM | 5.5 µM | 
Nc1nc(-c2ccc(NC(=O)CN(CC3CCCCC3)C(=O)C3CCCC3)cc2)cs1 [Example 63] | 2.2 µM | 0.25 µM | 
Nc1nc(-c2ccc(NC(=O)CN(CCc3ccccc3)C(=O)C3CCCC3)cc2)cs1 [Example 66] | 0.35 µM | 0.09 µM | 
CC(C)(C)OC(=O)NCC(=O)N(CC(=O)Nc1ccc(-c2csc(N)n2)cc1)Cc1ccccc1 [Example 72] | 7.5 µM | 0.67 µM | 
Nc1nc(-c2ccc(NC(=O)CN(CC3CCCCC3)C(=O)Cc3ccccc3)cc2)cs1 [Example 77] | 6.1 µM | 0.19 µM | 
Nc1nc(-c2ccc(NC(=O)CN(CCc3ccccn3)C(=O)C3CCCC3)cc2)cs1 [Example 79] | 3.8 µM | 0.16 µM | 
CC(C)(C)CN(CC(=O)Nc1ccc(-c2csc(N)n2)cc1)C(=O)C1CCCCC1 [Example 80] | 9.5 µM | 0.31 µM | 
CCCC(CCC)N(CC(=O)Nc1ccc(-c2csc(N)n2)cc1)C(=O)C1CCCCC1 [Example 82] | 8.1 µM | 0.06 µM | 
Nc1nc(-c2ccc(NC(=O)CN(Cc3ccc(F)cc3)C(=O)c3ccncc3)cc2)cs1 [Example 84] | 5.6 µM | 0.14 µM | 
CC(C)(C)OC(=O)N(CC(=O)Nc1ccc(-c2csc(N)n2)cc1)Cc1ccccc1 [Example 85] | 0.6 µM | 0.01 µM | 
C[C@@H](c1ccccc1)N(CC(=O)Nc1ccc(-c2csc(N)n2)cc1)C(=O)OC(C)(C)C [Example 89] | 0.9 µM | 0.036 µM | 
CC(C)(C)OC(=O)N(CC(=O)Nc1ccc(-c2csc(N)n2)cc1)Cc1ccncc1 [Example 90] | 3.5 µM | 0.015 µM | 
CC(C)(C)NC(=S)N(CC(=O)Nc1ccc(-c2csc(N)n2)cc1)Cc1ccccc1 [Example 93] | 0.25 µM | 0.12 µM | 
Nc1nc(-c2ccc(NC(=O)CN(Cc3ccccc3)S(=O)(=O)c3ccccc3)cc2)cs1 [Example 97] | > 5 µM | 0.13 µM | 
CCC(CC)C(=O)N(CC(=O)Nc1ccc(-c2csc(N)n2)cc1)Cc1ccccc1 [Example 104] | 1.9 µM | 0.016 µM | 
CN(C)CCN(CC(=O)Nc1ccc(-c2csc(N)n2)cc1)C(=O)C1CCCCC1 [Example 140] | 1.4 µM | 9.2 µM | 
